Like-named read-outs stand apart in the source and are kept apart here. Each block holds one compound with its values, some of them ahead of it.
Legend:
[1] = test system: corn plants (variety NK OCTET); test: Reduced plant water use in corn (foliar spray, repeated weighing of pots); type: in vivo; conditions: Zea mays, corn plants sprayed at 500 μM, average of 6 pots
Method: Compounds were tested for their effect on reducing plant water use as follows. The compounds were applied by foliar spray to 12 day old corn plants (variety NK OCTET) grown in controlled environment plant growth chambers. All compounds were applied using an emulsifiable concentrate (EC) formulation that was diluted to the desired concentrations with water containing 0.4% of the adjuvant rape seed methyl ester. Plant water use during the day was assessed by repeated weighing of the pots in which the plants were grown before and after application of the compounds at the indicated times (expressed in days after application (DAA)). The water use data before application was used to correct any differences in water use arising due to non-treatment effects (e.g. due to differences in plant size). The untransformed water use values were subjected to an analysis of covariance, fitting the effect of treatment and using the baseline water use 1 day before application as a covariate. Application of the chemicals (0 DAA) takes place approximately between 08:00 and 09:30 a.m. WU is measured within day time (chamber light is on 06:00 to 20:00) at these timepoints: 0 DAA a.m. (10:30-12:50), 0 DAA p.m. (14:00-19:50), 1 DAA a.m. (07:30-12:50), 1 DAA p.m. (14:00-19:50), 2 DAA a.m. (07:30-12:50) and 2 DAA p.m. (14:00-19:50). The cumulative total WU (0-2.5 DAA) is calculated by summing the WU data mentioned above.

[2] = test system: soybean plants (variety S20-G7); test: Reduced plant water use in soybean (foliar spray, repeated weighing of pots); type: in vivo; conditions: Glycine max, foliar, Table B1, sprayed at 500 μM, vs negative control
Method: Compounds were tested for their effect on reducing plant water use as follows. Each compound was dissolved in a blank emulsifiable concentrate (EC) formulation that was then diluted to the desired concentration with water containing additional surfactant (EXTRAVON 1 g/20 L). The compounds were applied by foliar spray to 12 day old soybean plants (variety S20-G7) grown in controlled environment plant growth chambers. Plant water use during the day was assessed by repeated weighing of the pots in which the plants were grown before and after application of the compounds at the indicated times (expressed in days after application (DAA)). The water use data before application was used to correct any differences in water use arising due to non-treatment effects (e.g. due to differences in plant size). The untransformed water use values were subjected to an analysis of covariance, fitting the effect of treatment and using the baseline water use 1 day before application as a covariate.
The results are expressed compared to negative control treatment (diluted EC formulation without active ingredient but with EXTRAVON 1 g/20 L).
Application of the chemicals (0 DAA) takes place approximately between 08:00 and 09:30 a.m. WU is measured within day time (chamber light is on 06:00 to 20:00) at these timepoints: 0 DAA a.m. (10:30-12:50), 0 DAA p.m. (14:00-19:50), 1 DAA a.m. (7:30-12:50), 1 DAA p.m. (14:00-19:50), 2 DAA a.m. (07:30-12:50) and 2 DAA p.m. (14:00-19:50). The cumulative total WU (0-2.5 DAA) is calculated by summing the WU data mentioned above.

[3] = 0 h, water use during day time vs negative control, 0 DAA a.m. (10:30-12:50), read-out: % WU 0 DAA AM
[4] = 0 h, water use during day time vs negative control, 0 DAA p.m. (14:00-19:50), read-out: % WU 0DAA PM
[5] = 24 h, water use during day time vs negative control, 1 DAA a.m. (07:30-12:50), read-out: % WU 1DAA AM
[6] = 24 h, water use during day time vs negative control, 1 DAA p.m. (14:00-19:50), read-out: % WU 1DAA PM
[7] = 48 h, water use during day time vs negative control, 2 DAA a.m. (07:30-12:50), read-out: % WU 2 DAA AM
[8] = 48 h, water use during day time vs negative control, 2 DAA p.m. (14:00-19:50), read-out: % WU 2 DAA PM
[9] = 60 h, cumulative total water use 0-2.5 DAA (sum of the time points) vs negative control, read-out: % WU Total 0 to 2.5 DAA
[10] = 0 h, 0 DAA a.m. (10:30-12:50), read-out: % WU 0 DAA AM
[11] = 24 h, 1 DAA a.m. (7:30-12:50), read-out: % WU 1DAA AM
[12] = 24 h, 1 DAA p.m. (14:00-19:50), read-out: % WU 1DAA PM
[13] = 48 h, 2 DAA a.m. (07:30-12:50), read-out: % WU 2 DAA AM
[14] = 48 h, 2 DAA p.m. (14:00-19:50), read-out: % WU 2 DAA PM
[15] = 60 h, cumulative total WU (0-2.5 DAA), read-out: % WU Total 0 to 2.5 DAA

Structure (SMILES): CCCN1C(=O)CCc2cc(CNS(=O)(=O)c3ccc(C)cc3C)ccc21
melting point: 166 to 167 °C

Structure (SMILES): CCN1C(=O)CCc2cc(CNS(=O)(=O)c3ccccc3C)ccc21 [Compound 2.011, N-[(1-ethyl-2-oxo-3,4-dihydroquinolin-6-yl)methyl]-2-methyl-benzenesulfonamide]
melting point: 203 to 206 °C

Structure (SMILES): CCN1C(=O)CCc2cc(CNS(=O)(=O)c3ccc(C)cc3)ccc21 [Compound 2.012, N-[(1-ethyl-2-oxo-3,4-dihydroquinolin-6-yl)methyl]-4-methyl-benzenesulfonamide]
melting point: 202 to 203 °C

Structure (SMILES): CCN1C(=O)CCc2cc(CNS(=O)(=O)c3ccccc3Br)ccc21 [Compound 2.017, 2-bromo-N-[(1-ethyl-2-oxo-3,4-dihydroquinolin-6-yl)methyl]benzenesulfonamide]
melting point: 206 to 207 °C

Structure (SMILES): CCN1C(=O)CCc2cc(CNS(=O)(=O)C3CC3)ccc21 [Compound 2.018, N-[(1-ethyl-2-oxo-3,4-dihydroquinolin-6-yl)methyl]cyclopropanesulfonamide]
melting point: 104 to 106 °C

Structure (SMILES): CCN1C(=O)CCc2cc(CNS(=O)(=O)/C=C/c3ccc(Br)cc3)ccc21 [Compound 2.052, (E)-2-(4-bromophenyl)-N-[(1-ethyl-2-oxo-3,4-dihydroquinolin-6-yl)methyl]ethenesulfonamide]
melting point: 119 to 124 °C

Structure (SMILES): CCN1C(=O)CCc2cc(CNS(=O)(=O)/C=C/c3ccc(C)cc3)ccc21 [Compound 2.059, (E)-N-[(1-ethyl-2-oxo-3,4-dihydroquinolin-6-yl)methyl]-2-(p-tolyl)ethenesulfonamide]
melting point: 151 to 153 °C

Structure (SMILES): CCN1C(=O)CCc2cc(CNS(=O)(=O)c3cn(C)cn3)ccc21 [Compound 2.063, N-[(1-ethyl-2-oxo-3,4-dihydroquinolin-6-yl)methyl]-1-methyl-imidazole-4-sulfonamide]
melting point: 165 to 167 °C

Structure (SMILES): CCN1C(=O)CCc2cc(CNS(=O)(=O)c3cc(Cl)sc3Cl)ccc21 [Compound 2.064, 2,5-dichloro-N-[(1-ethyl-2-oxo-3,4-dihydroquinolin-6-yl)methyl]thiophene-3-sulfonamide]
melting point: 198 to 201 °C

Structure (SMILES): CCCN1C(=O)CCc2cc(C3(NS(=O)(=O)c4ccc(F)cc4F)CC3)ccc21 [Compound 15.006, 2,4-difluoro-N-[1-(2-oxo-1-propyl-3,4-dihydroquinolin-6-yl)cyclopropyl]benzenesulfonamide]
change in vivo at 500 µM [1, 3]: -10.2% | change in vivo at 500 µM [1, 4]: -3% | change in vivo at 500 µM [1, 5]: -1.4% | change in vivo at 500 µM [1, 6]: 0.1% | change in vivo at 500 µM [1, 7]: 1.7% | change in vivo at 500 µM [1, 8]: 1.1% | change in vivo at 500 µM [1, 9]: -1.2% | change in vivo at 500 µM [2, 10]: -32.6% | change in vivo at 500 µM [2, 11]: -23.6% | change in vivo at 500 µM [2, 12]: -24.4% | change in vivo at 500 µM [2, 13]: -17% | change in vivo at 500 µM [2, 14]: -17.8% | change in vivo at 500 µM [2, 15]: -23.8%

Structure (SMILES): CCN1C(=O)CC(C)c2cc(CNS(=O)(=O)c3ccccc3)ccc21 (centres unmarked) [Compound 20.001, N-[(1-ethyl-4-methyl-2-oxo-3,4-dihydroquinolin-6-yl)methyl]benzenesulfonamide]
change in vivo at 500 µM [1, 3]: -21.7% | change in vivo at 500 µM [1, 4]: -18.3% | change in vivo at 500 µM [1, 5]: -19.2% | change in vivo at 500 µM [1, 6]: -10.3% | change in vivo at 500 µM [1, 7]: -8.1% | change in vivo at 500 µM [1, 8]: -5.5% | change in vivo at 500 µM [1, 9]: -12.9% | change in vivo at 500 µM [2, 10]: -50.1% | change in vivo at 500 µM [2, 11]: -58.5% | change in vivo at 500 µM [2, 12]: -55.2% | change in vivo at 500 µM [2, 13]: -55.8% | change in vivo at 500 µM [2, 14]: -50.5% | change in vivo at 500 µM [2, 15]: -54.4%

Next, values leading:

melting point: 138 to 140 °C
Structure (SMILES): CCCN1C(=O)CCc2cc(CNS(=O)(=O)c3ccc(C(F)(F)F)cc3)ccc21 [Compound 3.015, N-[(2-oxo-1-propyl-3,4-dihydroquinolin-6-yl)methyl]-4-(trifluoromethyl)benzenesulfonamide]

melting point: 172 to 174 °C
Structure (SMILES): CCCN1C(=O)CCc2cc(CNS(=O)(=O)/C=C/c3ccc(C)cc3)ccc21 [Compound 3.059, (E)-N-[(2-oxo-1-propyl-3,4-dihydroquinolin-6-yl)methyl]-2-(p-tolyl)ethenesulfonamide]

melting point: 148 to 153 °C
Structure (SMILES): CCCN1C(=O)CCc2cc(CNS(=O)(=O)/C=C/c3cccc(Br)c3)ccc21 [Compound 3.070, (E)-2-(3-bromophenyl)-N-[(2-oxo-1-propyl-3,4-dihydroquinolin-6-yl)methyl]ethenesulfonamide]
